The subject of assay [1] is T-cell. Description: IL-2 secretion from T-cells stimulated with anti-CD3 antibody alone (Biological Example 2). The format is cell-based, human. As to conditions: T-cell.
The subject of assay [2] is T-cell. Description: CD25 cell surface staining on T-cells stimulated with anti-CD3 antibody alone (Biological Example 2). The format is cell-based, human. Particulars: T-cell.
The mark [3] stands for this setting: Homo sapiens, 1 μM Cbl-b inhibitor, fold change over baseline (anti-CD3/anti-CD28 stimulated T-cells without inhibitor), read-out: IL-2 secretion Anti-CD3 stimulation.
The mark [4] stands for this setting: Homo sapiens, 1 μM Cbl-b inhibitor, fold change over baseline (anti-CD3/anti-CD28 stimulated T-cells without inhibitor), read-out: CD25 staining Anti-CD3 stimulation.

Bounds are passed on as bounds.

Here are results for eight compounds from patent US20220324835A1 (Nurix Therapeutics, Inc., priority 2018, published 2022).

In the case of `CNc1cc([C@H](C)Cc2nncn2C)cc(N2Cc3c(cccc3C(F)(F)F)C2=O)n1` [Compound 363, (R)-2-(4-(1-(4-methyl-4H-1,2,4-triazol-3-yl)propan-2-yl)-6-(methylamino)pyridin-2-yl)-4-(trifluoromethyl)isoindolin-1-one], the fold induction at 1 µM in the assay with T-cell [1] (fold change over baseline, 1 μM Cbl-b inhibitor, primary human total T-cells, read-out: IL-2 secretion Anti-CD3 stimulation) was 0.051 to 0.1; in the assay on T-cell [2] (fold change over baseline, 1 μM Cbl-b inhibitor, primary human total T-cells, read-out: CD25 staining Anti-CD3 stimulation), 0.601 to 0.8. Besides, the fold induction at 8 µM was 0.151 to 0.2 in the assay on T-cell [1] (fold change over baseline, 8 μM Cbl-b inhibitor, primary human total T-cells, read-out: IL-2 secretion Anti-CD3 stimulation) and over 1 in the assay with T-cell [2] (fold change over baseline, 8 μM Cbl-b inhibitor, primary human total T-cells, read-out: CD25 staining Anti-CD3 stimulation).
On to `CN1CC2CCC(C1)N2c1cc2c(c(C(F)(F)F)c1)CN(c1cccc(C3(Cc4nncn4C)COC3)c1)C2=O` [Compound 386, 2-(3-(3-((4-Methyl-4H-1,2,4-triazol-3-yl)methyl)oxetan-3-yl)phenyl)-6-(3-methyl-3,8-diazabicyclo[3.2.1]octan-8-yl)-4-(trifluoromethyl)isoindolin-1-one], for which the fold induction at 1 µM is over 0.201 in the assay on T-cell [1] (Homo sapiens, read-out: IL-2 secretion, Anti-CD3 stimulation, fold change over baseline) and over 1 in the assay with T-cell [2] (Homo sapiens, read-out: CD25 staining, Anti-CD3 stimulation, fold change over baseline).
Regarding `C[C@H](c1cc2c(c(C(F)(F)F)c1)CN(c1cccc(C3(C(F)(F)c4nncn4C)COC3)c1)C2=O)N1CC[C@H](F)C1` [Example 571, 2-(3-(3-(difluoro(4-methyl-4H-1,2,4-triazol-3-yl)methyl)oxetan-3-yl)phenyl)-6-((R)-1-((S)-3-fluoropyrrolidin-1-yl)ethyl)-4-(trifluoromethyl)isoindolin-1-one], the fold induction at 1 µM in the assay with T-cell [1] (setting [3]) was over 0.201; in the assay with T-cell [2] (setting [4]), over 1.
For the compound `C[C@H](c1cc2c(c(C(F)(F)F)c1)CN(c1cccc(C3([C@@H](F)c4nncn4C)COC3)c1)C2=O)N1CCC2(CC2)C1` [Example 576, 6-((R)-1-(5-azaspiro[2.4]heptan-5-yl)ethyl)-2-(3-(3-((R)-fluoro(4-methyl-4H-1,2,4-triazol-3-yl)methyl)oxetan-3-yl)phenyl)-4-(trifluoromethyl)isoindolin-1-one], the fold induction at 1 µM was over 0.201 in the assay on T-cell [1] (setting [3]) and over 1 in the assay with T-cell [2] (setting [4]).
In the same order, the values of `Cn1cnnc1CC1(c2cccc(N3Cc4c(cc(CN5CCC(C)(F)CC5)cc4C(F)(F)F)C3=O)c2)COC1` [Example 620, 6-((4-fluoro-4-methylpiperidin-1-yl)methyl)-2-(3-(3-((4-methyl-4H-1,2,4-triazol-3-yl)methyl)oxetan-3-yl)phenyl)-4-(trifluoromethyl)isoindolin-1-one] are over 0.201 and over 1.
For `C[C@@H]1CN(Cc2cc3c(c(C(F)(F)F)c2)CN(c2cccc(C4(Cc5nncn5C)COC4)c2)C3=O)CCO1` [Example 663b, (R)-2-(3-(3-((4-methyl-4H-1,2,4-triazol-3-yl)methyl)oxetan-3-yl)phenyl)-6-((2-methylmorpholino)methyl)-4-(trifluoromethyl)isoindolin-1-one], the figures for the fold induction at 1 µM in the assay with T-cell [1] (setting [3]) and in the assay with T-cell [2] (setting [4]) were over 0.201 and over 1, respectively.
Regarding `Cn1cnnc1[C@@H](F)C1(c2cccc(N3Cc4c(cc(CN5CCC(F)CC5)cc4C(F)(F)F)C3=O)c2)COC1` [Example 670a, (S)-2-(3-(3-(fluoro(4-methyl-4H-1,2,4-triazol-3-yl)methyl)oxetan-3-yl)phenyl)-6-((4-fluoropiperidin-1-yl)methyl)-4-(trifluoromethyl)isoindolin-1-one], the values for the fold induction at 1 µM in the assay with T-cell [1] (setting [3]) and in the assay with T-cell [2] (setting [4]) were over 0.201 and over 1, respectively.
On to `Cn1cnnc1[C@H](F)C1(c2cccc(N3Cc4c(cc(CN5CCC(F)CC5)cc4C(F)(F)F)C3=O)c2)COC1` [Example 670b, (R)-2-(3-(3-(fluoro(4-methyl-4H-1,2,4-triazol-3-yl)methyl)oxetan-3-yl)phenyl)-6-((4-fluoropiperidin-1-yl)methyl)-4-(trifluoromethyl)isoindolin-1-one], for which the figures for the fold induction at 1 µM in the assay on T-cell [1] (setting [3]) and in the assay with T-cell [2] (setting [4]) were over 0.201 and over 1, respectively.
